Measurements taken from paper PMC12587574, “Mass balance, pharmacokinetics, metabolism, and excretion of radiolabeled acoziborole, a potential novel treatment for human African trypanosomiasis, following single microtracer oral dose to humans” (Antimicrobial Agents and Chemotherapy, 2025).
Read-outs that look alike come from different tables or passages of the source.

Tests used:
gambiense HAT infection = system: gambiense HAT infection; design: method as in PMID 36460027; conditions: single oral 960 mg, fasting, cited from earlier work
T.b. gambiense = system: T.b. gambiense; design: method as in PMID 21738803; conditions: oral 5–25 mg/kg/day; acute and chronic infection; cited from earlier work
[1] = Urinary excretion / renal clearance of acoziborole and SCYX-3109 by LC-MS/MS; assay type: in vivo; conditions: male, human, urine and plasma; CumAe0–240h/AUC0–240h; mean ± SD; 960 mg single oral dose of acoziborole; read-out: renal clearance CLr0–240h (converted)
Description: Urine samples were collected before IP administration (single urine void) and then during intervals of 0–6, 6–12, 12–24, 24–48, 48–72, 72–96, 96–120, 120–168, 168–192, 192–216, and 216–240 h post-dose and for the additional 48-h collection period starting on Day 15 post-dose, that is, 336–384 h. Samples were acidified with citric acid to avoid acoziborole degradation and were refrigerated until the end of the block collection periods. The total weight and volume of urine were then recorded. At the end of each collection period, two aliquots of acidified urine (20 mL) were taken from the sample and stored in polypropylene tubes at −20°C until further analysis for total radioactivity. Two aliquots of 1 mL acidified urine were collected into tubes containing bovine serum albumin in aqueous solution (to avoid non-specific adsorption of acoziborole) and NaCl for acoziborole and SCYX-3109 assays. […]
SGS Belgium (Wavre, Belgium) performed the analysis to determine acoziborole and SCYX-3109 concentrations, using validated bioanalytical assays with liquid chromatography with tandem mass spectrometry (LC-MS/MS) with a Supelco Ascentis Express C8, 2.7 µm, 50 × 2.1 mm I.D. separation column. In plasma, the lower limit of quantification (LLOQ) was 25 ng/mL for acoziborole and 10 ng/mL for SCYX-3109. […]

[2] = Safety and tolerability assessment, phase I mass balance study; assay type: in vivo, human
Description: Safety was assessed by adverse event (AE) reports and at specific times during the physical examination, vital signs, 12-lead ECGs, and laboratory evaluations (see Supplementary Information section 2). AEs were all recorded from the time participants signed the consent form until the follow-up call, 5–10 days after final study discharge, and were evaluated for type, severity, frequency of AEs, and relationship to the IP.

CC1(C)OB(O)c2cc(NC(=O)c3ccc(F)cc3C(F)(F)F)ccc21 [acoziborole]
safety and tolerability profile (gambiense HAT infection; 208 patients): acceptable safety and tolerability profile | treatment success rate at 18 months (gambiense HAT infection; 159 out of 162 patients, evaluable population): 98.1% | treatment success rate at 18 months (gambiense HAT infection; late-stage patients, modified intention-to-treat population): 95.2% | effect on survival of infected mice (T.b. gambiense): significantly prolong survival | outcome of oral treatment in infected mice (T.b. gambiense): curative | CL renal [1]: 0.0333 mL/min | overall tolerability ([2]; 960 mg single oral dose, N = 6): well-tolerated overall | Balanitis candida, participants ([2]; Day 1, N = 6): 0 (0.0) 0 (0.0) n (%) | Blood glucose increased, participants ([2]; Day 1, N = 6): 0 (0.0) 0 (0.0) n (%) | Gastrointestinal disorders (system organ class), events ([2]; Day 1, N = 6): 0 | Gastrointestinal disorders (system organ class), participants ([2]; Day 1, N = 6): 0 (0.0) n (%) | Headache, events ([2]; Day 1, N = 6): 2 | Headache, participants ([2]; Day 1, N = 6): 2 (33.3) n (%) | Infections and infestation (system organ class), events ([2]; Day 1, N = 6): 0 | Infections and infestation (system organ class), participants ([2]; Day 1, N = 6): 0 (0.0) n (%) | Injury, poisoning and procedural complications (system organ class), events ([2]; Day 1, N = 6): 0 | Injury, poisoning and procedural complications (system organ class), participants ([2]; Day 1, N = 6): 0 (0.0) n (%) | Investigations (system organ class), events ([2]; Day 1, N = 6): 0 | Investigations (system organ class), participants ([2]; Day 1, N = 6): 0 (0.0) n (%) | Myalgia, events ([2]; Day 1, N = 6): 0 | Myalgia, participants ([2]; Day 1, N = 6): 0 (0.0) n (%) | Nervous system disorders (system organ class), events ([2]; Day 1, N = 6): 2 | Nervous system disorders (system organ class), participants ([2]; Day 1, N = 6): 2 (33.3) n (%) | Phosphokinase increased, participants ([2]; Day 1, N = 6): 0 (0.0) 0 (0.0) n (%) | Rhinitis, participants ([2]; Day 1, N = 6): 0 (0.0) 0 (0.0) n (%) | Skin laceration, events ([2]; Day 1, N = 6): 0 | Skin laceration, participants ([2]; Day 1, N = 6): 0 (0.0) n (%) | Surgical and medical procedures (system organ class), events ([2]; Day 1, N = 6): 0 | Surgical and medical procedures (system organ class), participants ([2]; Day 1, N = 6): 0 (0.0) n (%) | TEAEs, events ([2]; Day 1, N = 6): 2 | TEAEs, participants ([2]; Day 1, N = 6): 2 (33.3) n (%) | Tooth repair, events ([2]; Day 1, N = 6): 0 | Tooth repair, participants ([2]; Day 1, N = 6): 0 (0.0) n (%) | Toothache, events ([2]; Day 1, N = 6): 0 | Toothache, participants ([2]; Day 1, N = 6): 0 (0.0) n (%) | Balanitis candida, events ([2]; Day 2 to Day 15, N = 6): 2 | Balanitis candida, participants ([2]; Day 2 to Day 15, N = 6): 1 (16.7) n (%) | Blood glucose increased, events ([2]; Day 2 to Day 15, N = 6): 0 | Blood glucose increased, participants ([2]; Day 2 to Day 15, N = 6): 0 (0.0) n (%) | Gastrointestinal disorders (system organ class), events ([2]; Day 2 to Day 15, N = 6): 1 | Gastrointestinal disorders (system organ class), participants ([2]; Day 2 to Day 15, N = 6): 1 (16.7) n (%) | Headache, events ([2]; Day 2 to Day 15, N = 6): 1 | Headache, participants ([2]; Day 2 to Day 15, N = 6): 1 (16.7) n (%) | Infections and infestation (system organ class), events ([2]; Day 2 to Day 15, N = 6): 2 | Infections and infestation (system organ class), participants ([2]; Day 2 to Day 15, N = 6): 1 (16.7) n (%) | Injury, poisoning and procedural complications (system organ class), events ([2]; Day 2 to Day 15, N = 6): 0 | Injury, poisoning and procedural complications (system organ class), participants ([2]; Day 2 to Day 15, N = 6): 0 (0.0) n (%) | Investigations (system organ class), events ([2]; Day 2 to Day 15, N = 6): 1 | Investigations (system organ class), participants ([2]; Day 2 to Day 15, N = 6): 1 (16.7) n (%) | Myalgia, events ([2]; Day 2 to Day 15, N = 6): 0 | Myalgia, participants ([2]; Day 2 to Day 15, N = 6): 0 (0.0) n (%) | Nervous system disorders (system organ class), events ([2]; Day 2 to Day 15, N = 6): 1 | Nervous system disorders (system organ class), participants ([2]; Day 2 to Day 15, N = 6): 1 (16.7) n (%) | Phosphokinase increased, events ([2]; Day 2 to Day 15, N = 6): 1 | Phosphokinase increased, participants ([2]; Day 2 to Day 15, N = 6): 1 (16.7) n (%) | Rhinitis, events ([2]; Day 2 to Day 15, N = 6): 0 | Rhinitis, participants ([2]; Day 2 to Day 15, N = 6): 0 (0.0) n (%) | Skin laceration, events ([2]; Day 2 to Day 15, N = 6): 0 | Skin laceration, participants ([2]; Day 2 to Day 15, N = 6): 0 (0.0) n (%) | Surgical and medical procedures (system organ class), events ([2]; Day 2 to Day 15, N = 6): 1 | Surgical and medical procedures (system organ class), participants ([2]; Day 2 to Day 15, N = 6): 1 (16.7) n (%) | TEAEs, events ([2]; Day 2 to Day 15, N = 6): 6 | TEAEs, participants ([2]; Day 2 to Day 15, N = 6): 4 (66.7) n (%) | Tooth repair, events ([2]; Day 2 to Day 15, N = 6): 1 | Tooth repair, participants ([2]; Day 2 to Day 15, N = 6): 1 (16.7) n (%) | Toothache, events ([2]; Day 2 to Day 15, N = 6): 1 | Toothache, participants ([2]; Day 2 to Day 15, N = 6): 1 (16.7) n (%) | Balanitis candida, events ([2]; Day 16 to end of study, N = 6): 0 | Balanitis candida, participants ([2]; Day 16 to end of study, N = 6): 0 (0.0) n (%) | Blood glucose increased, events ([2]; Day 16 to end of study, N = 6): 1 | Blood glucose increased, participants ([2]; Day 16 to end of study, N = 6): 1 (16.7) n (%) | Gastrointestinal disorders (system organ class), events ([2]; Day 16 to end of study, N = 6): 0 | Gastrointestinal disorders (system organ class), participants ([2]; Day 16 to end of study, N = 6): 0 (0.0) n (%) | Headache, events ([2]; Day 16 to end of study, N = 6): 1 | Headache, participants ([2]; Day 16 to end of study, N = 6): 1 (16.7) n (%) | Infections and infestation (system organ class), events ([2]; Day 16 to end of study, N = 6): 1 | Infections and infestation (system organ class), participants ([2]; Day 16 to end of study, N = 6): 1 (16.7) n (%) | Injury, poisoning and procedural complications (system organ class), events ([2]; Day 16 to end of study, N = 6): 1 | Injury, poisoning and procedural complications (system organ class), participants ([2]; Day 16 to end of study, N = 6): 1 (16.7) n (%) | Investigations (system organ class), events ([2]; Day 16 to end of study, N = 6): 1 | Investigations (system organ class), participants ([2]; Day 16 to end of study, N = 6): 1 (16.7) n (%) | Myalgia, events ([2]; Day 16 to end of study, N = 6): 1 | Myalgia, participants ([2]; Day 16 to end of study, N = 6): 1 (16.7) n (%) | Nervous system disorders (system organ class), events ([2]; Day 16 to end of study, N = 6): 1 | Nervous system disorders (system organ class), participants ([2]; Day 16 to end of study, N = 6): 1 (16.7) n (%) | Phosphokinase increased, events ([2]; Day 16 to end of study, N = 6): 0 | Phosphokinase increased, participants ([2]; Day 16 to end of study, N = 6): 0 (0.0) n (%) | Rhinitis, events ([2]; Day 16 to end of study, N = 6): 1 | Rhinitis, participants ([2]; Day 16 to end of study, N = 6): 1 (16.7) n (%) | Skin laceration, events ([2]; Day 16 to end of study, N = 6): 1 | Skin laceration, participants ([2]; Day 16 to end of study, N = 6): 1 (16.7) n (%) | Surgical and medical procedures (system organ class), events ([2]; Day 16 to end of study, N = 6): 0 | Surgical and medical procedures (system organ class), participants ([2]; Day 16 to end of study, N = 6): 0 (0.0) n (%) | TEAEs, events ([2]; Day 16 to end of study, N = 6): 5 | TEAEs, participants ([2]; Day 16 to end of study, N = 6): 3 (50.0) n (%) | Tooth repair, events ([2]; Day 16 to end of study, N = 6): 0 | Tooth repair, participants ([2]; Day 16 to end of study, N = 6): 0 (0.0) n (%) | Toothache, events ([2]; Day 16 to end of study, N = 6): 0 | Toothache, participants ([2]; Day 16 to end of study, N = 6): 0 (0.0) n (%) | TEAEs not considered related to the IP ([2]; N = 6): 10/13 | changes in ECG parameters, vital signs, or physical examination post-dose ([2]; N = 6): no significant changes | deaths, serious AEs, discontinuations due to AE ([2]; N = 6): no deaths, serious AEs, or participant discontinuations due to any AE | mean laboratory testing results (blood chemistry, hematology, urinalysis) ([2]; N = 6): within acceptable range or considered non-clinically significant | severity of reported TEAEs ([2]; N = 6): mild or moderate | Musculoskeletal and connective tissue disorders (system organ class), events ([2]; human, in vivo, 1 day): 0 | Musculoskeletal and connective tissue disorders (system organ class), participants ([2]; human, in vivo, 1 day): 0 (0.0) n (%) | treatment-emergent AEs, total number ([2]; in the six participants): 13
